# Test results as given in ChEMBL document CHEMBL1687783, “Prevalence and dissemination of oqxAB in Escherichia coli isolates from animals, farmworkers, and the environment” (2010).
# Tests used:
# [1] = tested on: Escherichia coli; experiment: Antimicrobial activity against Escherichia coli DH5[alpha] by CLSI agar dilution method
# [2] = tested on: Escherichia coli; experiment: Antimicrobial activity against oqxAB positive Escherichia coli C600 G062-T transconjugant by CLSI agar dilution method
# [3] = tested on: Escherichia coli; experiment: Antimicrobial activity against oqxAB positive Escherichia coli C600 XT11-T transconjugant by CLSI agar dilution method
# [4] = tested on: Escherichia coli; experiment: Antimicrobial activity against Escherichia coli C600 by CLSI agar dilution method
# [5] = tested on: Escherichia coli; experiment: Antimicrobial activity against oqxAB positive Escherichia coli C600 SP8-T transconjugant by CLSI agar dilution method; assay type: functional
# [6] = tested on: Escherichia coli; experiment: Antimicrobial activity against oqxAB positive Escherichia coli C600 D83-T transconjugant by CLSI agar dilution method; assay type: functional
# [7] = tested on: Escherichia coli; experiment: Antimicrobial activity against oqxAB positive Escherichia coli C600 W191-T transconjugant by CLSI agar dilution method; assay type: functional
# [8] = tested on: Escherichia coli; experiment: Antimicrobial activity against oqxAB positive Escherichia coli C600 G375-T transconjugant by CLSI agar dilution method; assay type: functional
# [9] = tested on: Escherichia coli; experiment: Antimicrobial activity against oqxAB positive Escherichia coli C600 W245-T transconjugant by CLSI agar dilution method; assay type: functional
# [10] = tested on: Escherichia coli; experiment: Antimicrobial activity against Escherichia coli C600 ST2-T transconjugant harboring oqxAB, qnrB6 and aac(6')-Ib-cr genes by CLSI agar dilution method; assay type: functional
# [11] = tested on: Escherichia coli; experiment: Antimicrobial activity against oqxAB positive Escherichia coli C600 SW8-T transconjugant by CLSI agar dilution method; assay type: functional
# [12] = tested on: Escherichia coli; experiment: Antimicrobial activity against oqxAB positive Escherichia coli C600 X1B1-T transconjugant by CLSI agar dilution method
# [13] = tested on: Escherichia coli; experiment: Antimicrobial activity against oqxAB positive Escherichia coli C600 W281-T transconjugant by CLSI agar dilution method
# [14] = tested on: Escherichia coli; experiment: Antimicrobial activity against oqxAB positive Escherichia coli C600 G262-T transconjugant by CLSI agar dilution method
# [15] = tested on: Escherichia coli; experiment: Antimicrobial activity against oqxAB positive Escherichia coli C600 W322-T transconjugant by CLSI agar dilution method; assay type: functional
# [16] = tested on: Escherichia coli; experiment: Antimicrobial activity against oqxAB positive Escherichia coli DH5[alpha] harboring pMD18-T::oqxAB by CLSI agar dilution method; assay type: functional
Compound,MIC [1],MIC [2],MIC [3],MIC [4],MIC [5],MIC [6],MIC [7],MIC [8],MIC [9],MIC [10],MIC [11],MIC [12],MIC [13],MIC [14],MIC [15],MIC [16]
CC1(C)S[C@@H]2[C@H](NC(=O)[C@H](N)c3ccccc3)C(=O)N2[C@H]1C(=O)O [AMPICILLIN],> 128 µg/mL,> 128 µg/mL,> 128 µg/mL,4 µg/mL,> 128 µg/mL,16 µg/mL,> 128 µg/mL,16 µg/mL,> 128 µg/mL,4 µg/mL,> 128 µg/mL,16 µg/mL,> 128 µg/mL,8 µg/mL,> 128 µg/mL,–
O=C(N[C@H](CO)[C@H](O)c1ccc([N+](=O)[O-])cc1)C(Cl)Cl [CHLORAMPHENICOL],4 µg/mL,32 µg/mL,128 µg/mL,4 µg/mL,64 µg/mL,32 µg/mL,128 µg/mL,32 µg/mL,64 µg/mL,32 µg/mL,128 µg/mL,128 µg/mL,128 µg/mL,128 µg/mL,64 µg/mL,64 µg/mL
CCN1CCN(c2cc3c(cc2F)c(=O)c(C(=O)O)cn3C2CC2)CC1 [ENROFLOXACIN],0.016 µg/mL,0.125 µg/mL,0.06 µg/mL,0.016 µg/mL,0.06 µg/mL,0.06 µg/mL,0.125 µg/mL,0.125 µg/mL,0.06 µg/mL,2 µg/mL,0.125 µg/mL,0.125 µg/mL,0.06 µg/mL,0.125 µg/mL,0.125 µg/mL,0.125 µg/mL
CS(=O)(=O)c1ccc([C@@H](O)[C@@H](CF)NC(=O)C(Cl)Cl)cc1 [FLORFENICOL],4 µg/mL,16 µg/mL,16 µg/mL,2 µg/mL,16 µg/mL,8 µg/mL,16 µg/mL,16 µg/mL,16 µg/mL,4 µg/mL,16 µg/mL,16 µg/mL,16 µg/mL,16 µg/mL,16 µg/mL,16 µg/mL
CC(=O)c1c(C)[n+]([O-])c2ccccc2[n+]1[O-] [MEQUINDOX],4 µg/mL,128 µg/mL,128 µg/mL,4 µg/mL,256 µg/mL,128 µg/mL,128 µg/mL,256 µg/mL,128 µg/mL,128 µg/mL,256 µg/mL,64 µg/mL,64 µg/mL,128 µg/mL,256 µg/mL,64 µg/mL
CCn1cc(C(=O)O)c(=O)c2ccc(C)nc21 [NALIDIXIC ACID],2 µg/mL,32 µg/mL,16 µg/mL,2 µg/mL,32 µg/mL,8 µg/mL,16 µg/mL,64 µg/mL,16 µg/mL,256 µg/mL,64 µg/mL,16 µg/mL,16 µg/mL,16 µg/mL,64 µg/mL,32 µg/mL
CCn1cc(C(=O)O)c(=O)c2cc(F)c(N3CCNCC3)cc21 [NORFLOXACIN],0.03 µg/mL,0.125 µg/mL,0.25 µg/mL,0.03 µg/mL,0.125 µg/mL,0.125 µg/mL,0.125 µg/mL,0.25 µg/mL,0.125 µg/mL,4 µg/mL,0.5 µg/mL,0.125 µg/mL,0.125 µg/mL,0.25 µg/mL,0.25 µg/mL,0.25 µg/mL
Cc1c(C(=O)NCCO)[n+]([O-])c2ccccc2[n+]1[O-] [OLAQUINDOX],8 µg/mL,256 µg/mL,256 µg/mL,8 µg/mL,256 µg/mL,256 µg/mL,256 µg/mL,256 µg/mL,512 µg/mL,512 µg/mL,512 µg/mL,256 µg/mL,128 µg/mL,256 µg/mL,512 µg/mL,128 µg/mL
CN[C@@H]1[C@H](O[C@H]2[C@H](O[C@H]3[C@H](O)[C@@H](O)[C@H](N=C(N)N)[C@@H](O)[C@@H]3N=C(N)N)O[C@@H](C)[C@]2(O)C=O)O[C@@H](CO)[C@H](O)[C@H]1O [STREPTOMYCIN],4 µg/mL,> 518 µg/mL,> 521 µg/mL,> 512 µg/mL,> 524 µg/mL,> 525 µg/mL,> 514 µg/mL,> 519 µg/mL,> 516 µg/mL,> 523 µg/mL,> 522 µg/mL,> 520 µg/mL,> 513 µg/mL,> 517 µg/mL,> 515 µg/mL,2 µg/mL
CN(C)[C@@H]1C(O)=C(C(N)=O)C(=O)[C@@]2(O)C(O)=C3C(=O)c4c(O)cccc4[C@@](C)(O)[C@H]3C[C@@H]12 [TETRACYCLINE],2 µg/mL,4 µg/mL,64 µg/mL,1 µg/mL,2 µg/mL,4 µg/mL,64 µg/mL,4 µg/mL,1 µg/mL,2 µg/mL,1 µg/mL,32 µg/mL,2 µg/mL,32 µg/mL,1 µg/mL,4 µg/mL
GENTAMICIN,–,–,–,–,0.25 µg/mL,0.25 µg/mL,1 µg/mL,0.25 µg/mL,0.25 µg/mL,0.25 µg/mL,32 µg/mL,–,–,–,0.125 µg/mL,0.125 µg/mL
